Source: patent US6022857A, “Radiolabeled compounds for thrombus imaging” (Diatide, Inc., priority 1998, dated 2000)
Where “and” joins values, the source holds several entries; their conditions need not be identical. Identical values can stand only once. Like-named read-outs stand apart in the source and are kept apart here. Where no end group is shown, it is not given here. The star is where a group is joined. Acm = CC(=O)NC*

Assays:
[1] = tested on: human platelets in platelet-rich plasma; experiment: Platelet aggregation inhibition assay (ADP-induced, platelet-rich plasma); type: cell-based
Protocol: Platelet aggregation studies were performed essentially as described by Zucker (1989, Methods in Enzymol. 169: 117-133). Briefly, platelet aggregation was assayed with or without putative platelet aggregation inhibitory compounds using fresh human platelet-rich plasma, comprising 300,000 platelets per microliter. Platelet aggregation was induced by the addition of a solution of adenosine diphosphate to a final concentration of 10 to 15 micromolar, and the extent of platelet aggregation monitored using a Bio/Data aggregometer (Bio/Data Corp., Horsham, Pa.). The concentrations of platelet aggregation inhibitory compounds used were varied from 0.1 to 500 μg/mL. The concentration of inhibitor that reduced the extent of platelet aggregation by 50% (defined as the IC50) was determined from plots of inhibitor concentration versus extent of platelet aggregation. An inhibition curve for peptide RGDS was determined for each batch of platelets tested.
**concentration of reagent that inhibits by 50% the aggregation of human
platelets in plateletrich plasma induced to aggregate by the addition of
adenosine diphosphate (ADP)

femoral vein thrombus [2] = experiment: Canine model of DVT: thrombus uptake and imaging of Tc-99m labeled reagent; type: in vivo; details: approximately 4 h postinjection
Protocol: *ratio of (% injected dose/g in a femoral vein thrombus)/(% injected
dose/g in blood) at approximately 4 h postinjection of each Tc99 m labele
reagent in a canine model of DVT

deep-vein thrombi = experiment: Pilot human clinical study: scintigraphic imaging of deep-vein thrombi; type: in vivo; details: Tc-99m labeled
Protocol: A series of experiments comprising a pilot human clinical study of one embodiment of the scintigraphic imaging agents of the invention, designated P280, having the chemical structure:
were performed. These experiments were performed on 9 human patients (6 males, 3 females), ages 30 to 60 years and weighing 63 to 100 kg. Each of the patients presented clinically with the symptoms of deep-vein thrombosis, and the diagnosis was confirmed by physical work-up, ultrasonography and/or contrast venography.
Each patient in the study was administered 10-22 mCi Tc-99m labeled P280 comprising approximately 0.25 mg peptide, by intravenous injection. Scintigraphic imaging was then performed over four hours using a large field-of-view gamma camera equipped with a high-resolution collimator (photopeaked at 140 keV, with a 20%±window). Gamma camera imaging was commenced simultaneously with injection. Anterior images followed by posterior images over the legs were acquired over the first hour, then at 2 and 4 hours post-injection.

femoral vein thrombus [3] = experiment: Canine model of DVT: thrombus uptake and imaging of Tc-99m labeled reagent; details: in vivo canine model system
[4] = human platelet-rich plasma, aggregation induced by ADP, read-out: IC50 (concentration of reagent that inhibits by 50% the aggregation of human platelets)

IC50 [1, 4] [nM]	Substance	Clot/Blood: ratio of (% injected dose/g in a femoral vein thrombus)/(% injected dose/g in blood) (femoral vein thrombus [2])	further results
–	(CH2 CO.YD ApcGDCGGCAcm GCAcm GGC.amide)2 -BSME [Peptide P280]	–	IC50 ([1]; unlabeled reagent, read-out: IC50, platelet aggregation inhibition): 87 nM; patients in whom thrombi were visualized (deep-vein thrombi; 9 patients with confirmed DVT): 8 of the 9; toxicity or other adverse effects (deep-vein thrombi; 10-22 mCi, approximately 0.25 mg peptide i.v., human patients): no toxicity or other adverse effects; time after injection at which thrombus visualization was evident (deep-vein thrombi; human patients with DVT): 15 to 30 min; time post-injection for which thrombus remained visible (deep-vein thrombi; human patients with DVT): 4 to 24 h; scintigraphic images of deep-vein thrombi (deep-vein thrombi; humans in vivo): excellent scintigraphic images; injected dose remaining in the circulation (deep-vein thrombi; intravenous, 1 hour post-injection, human patients): less than 10%; injected dose cleared by the kidneys (deep-vein thrombi; intravenous, human patients): 60-70%; scintigraphic images of venous thrombi (femoral vein thrombus [3]): excellent scintigraphic images
81	(CH2 COYD.Apc.GDCGGCAcm GCAcm GGCamide)2 (CH2 CO)2 K(Nε-K)GCamide [Peptide P667]	5.9 and 5.0	–
23000	AcSYGRGDVRGDFKCAcm GCAcm (SEQ ID NO: 6) (Ac-SYGRGDVRGDFKC(Acm)GC(Acm)) [Peptide P47]	1.0	–
26000	CAcm GCAcm RRRRRRRRRGDV (SEQ ID NO: 5) (C(Acm)GC(Acm)RRRRRRRRRGDV) [Peptide P32]	1.2 ± 0.2	–
850	CH2 CO--YD ApcGDCGGCAcm GCAcm GGC-amide [Peptide P246]	4.4 ± 1.8	–
300	CH2 CO--YD ApcGDCGGGCAm GCAcm amide [Peptide P154]	2.0 ± 0.5	–
25000	CH2 CO--YD RGDCCAcm GCAcm amide [Peptide P81]	1.8 ± 0.6	–
1300	CH2 CO--YD RGDCGGCAcm GCAcm amide [Peptide P143]	1.4	–
15000	GRDGVRGDFCAcm GCAcm amide(SEQ ID NO: 8) (GRDGVRGDFC(Acm)GC(Acm)-NH2; N-terminus assumed; SMILES CC(=O)NCSC[C@H](NC(=O)CNC(=O)[C@H](CSCNC(C)=O)NC(=O)[C@H](Cc1ccccc1)NC(=O)[C@H](CC(=O)O)NC(=O)CNC(=O)[C@H](CCCNC(=N)N)NC(=O)[C@@H](NC(=O)CNC(=O)[C@H](CC(=O)O)NC(=O)[C@H](CCCNC(=N)N)NC(=O)CN)C(C)C)C(N)=O) [Peptide P98]	1.7	–
8000	GRGDVRGDFKCAcm GCAcm amide (SEQ ID NO: 3) (GRGDVRGDFKC(Acm)GC(Acm)-NH2; N-terminus assumed; SMILES CC(=O)NCSC[C@H](NC(=O)CNC(=O)[C@H](CSCNC(C)=O)NC(=O)[C@H](CCCCN)NC(=O)[C@H](Cc1ccccc1)NC(=O)[C@H](CC(=O)O)NC(=O)CNC(=O)[C@H](CCCNC(=N)N)NC(=O)[C@@H](NC(=O)[C@H](CC(=O)O)NC(=O)CNC(=O)[C@H](CCCNC(=N)N)NC(=O)CN)C(C)C)C(N)=O) [Peptide P97]	1.0	–

Substance	IC50 [1, 4] [nM]	Clot/Blood: ratio of (% injected dose/g in a femoral vein thrombus)/(% injected dose/g in blood) (femoral vein thrombus [2])	further results
(CH2 CO--YD ApcGDCGGCAcm GCAcm GGC-amide)2 -(BAT-BS) [Peptide P357]	79	6.3 ± 3.4	–
(CH2 CO--YD ApcGDCGGCAcm GCAcm GGC-amide)3 -TSEA [Peptide P317]	36	3.8 ± 2.2	–
(CH2 CO--YD ApcGDCKGCAcm GCAcm GGC-amide)2 -BSME [Peptide P381]	35	2.5	–
AcSYGRGDVRGDFKCTCCA (SEQ ID NO: 7) (Ac-SYGRGDVRGDFKCTCCA; cysteine pairing not given here) [Peptide P63]	19000	1.7	–
